According to the OPERA property sets (Mansouri et al. 2018):
Peptide text beside a SMILES is read from it. * marks the point of attachment. NHtBu = CC(C)(C)N*

**Q.** For `CCOC(=O)n1cnc(CC(NC(=O)C2CCC(=O)N2)C(=O)N2CCCC2C(N)=O)c1` (centres undefined), which logP is on record?
**A.** Its logP is -1.3.

**Q.** With `O=C1C=CC(=NO)C=C1` as the compound, how does the logP read?
**A.** The logP was 1.08.

**Q.** Which logP does the source give for `O=C(c1ccccc1)c1ccncc1` here?
**A.** The logP was 1.98.

**Q.** For `NNC(=O)c1cccc(I)c1`, which logP is on record?
**A.** Its logP is 1.53.

**Q.** For `CN(C)C(N(C)C)=S(I)c1ccccc1I` (centres undefined), which logP is on record?
**A.** The logP was 0.3.

**Q.** Which logP does the source give for `O=C(CN1CCCCC1)Nc1cccc(I)c1` here?
**A.** The logP was 3.92.

**Q.** For `O=C(O)Cc1ccc2ccccc2c1`, which logP is on record?
**A.** Its logP is 2.81.

**Q.** For `CCC(C)NC(=O)C(=Cc1ccccc1)SC` (centres undefined), which logP is on record?
**A.** The logP was 3.03.

**Q.** Which logP does the source give for `CCC(C)(C)C(=O)O` here?
**A.** The logP was 1.9.

**Q.** With `CN(C)C(=O)C12CC3CC(CC(C3)C1)C2` as the compound, how does the logP read?
**A.** Its logP is 2.55.

**Q.** Which logP does the source give for `CP(C)c1ccccc1` here?
**A.** Its logP is 2.57.

**Q.** Which logP does the source give for `CC(=O)NC(C)C(=O)NC(Cc1ccccc1)C(=O)NC(C)C(=O)NC(C)(C)C` (stereo not drawn) (Ac-Ala-Phe-Ala-NHtBu; configuration not given here) here?
**A.** Its logP is 1.01.

**Q.** Which logP does the source give for `CCCCOC(=O)NCC(C)c1ncc([N+](=O)[O-])[nH]1` (centres undefined) here?
**A.** Its logP is 1.22.

**Q.** For `O=C(O)COc1ccc(I)cc1`, which logP is on record?
**A.** The logP was 2.69.

**Q.** With `OC(c1ccccc1)C1CCCCN1` (centres undefined) as the compound, how does the logP read?
**A.** The logP was 1.58.

**Q.** With `NNC(=O)c1ccnc(N)c1` as the compound, how does the logP read?
**A.** Its logP is -0.98.

**Q.** With `CC(=O)Nc1cccc(N(C)C)c1` as the compound, how does the logP read?
**A.** The logP was 1.29.

**Q.** With `ClCCCCl` as the compound, how does the logP read?
**A.** Its logP is 2.

**Q.** Which logP does the source give for `O=C(O)c1ccncc1` here?
**A.** The logP was 0.32.

**Q.** With `Cc1ccc(CO)cc1` as the compound, how does the logP read?
**A.** The logP was 1.58.

**Q.** Which logP does the source give for `CC(C)c1ccccc1N` here?
**A.** Its logP is 2.12.

**Q.** Which logP does the source give for `O=[N+]([O-])c1ccccc1O` here?
**A.** The logP was 1.79.

**Q.** With `O=C(Nc1ccccc1)NS(=O)(=O)c1ccc(Cl)cc1` as the compound, how does the logP read?
**A.** Its logP is 3.61.

**Q.** With `CCCc1ccc(S(N)(=O)=O)cc1` as the compound, how does the logP read?
**A.** Its logP is 1.64.

**Q.** For `CC(C)N(N=O)C(C)C`, which logP is on record?
**A.** Its logP is 1.38.

**Q.** With `CCOC(N)=O` as the compound, how does the logP read?
**A.** The logP was -0.15.

**Q.** Which logP does the source give for `CC[N+](=O)[O-]` here?
**A.** The logP was 0.18.

**Q.** For `CCCCOC(C)=O`, which logP is on record?
**A.** Its logP is 1.78.

**Q.** Which logP does the source give for `Ic1ccc2ccccc2n1` here?
**A.** Its logP is 3.04.

**Q.** For `O=C(Cn1cnc([N+](=O)[O-])n1)NCCO`, which logP is on record?
**A.** The logP was -1.59.

**Q.** For `CN(C)c1ccc(S(N)(=O)=O)cc1`, which logP is on record?
**A.** The logP was 0.76.

**Q.** Which logP does the source give for `CCCCCCOc1ccccc1NC(=O)OCCN1CCCCC1` here?
**A.** The logP was 5.29.

**Q.** Which logP does the source give for `S=C=NC(c1ccccc1)(c1ccccc1)c1ccccc1` here?
**A.** The logP was 7.02.

**Q.** With `CCc1ccccc1N` as the compound, how does the logP read?
**A.** The logP was 1.74.

**Q.** Which logP does the source give for `CC(=O)c1ccccc1C(=O)O` here?
**A.** Its logP is 0.81.

**Q.** Which logP does the source give for `CC12CCC3C(CCC4CC(=O)CCC43C)C1CCC2=O` (centres undefined) here?
**A.** The logP was 3.6.

**Q.** Which logP does the source give for `O=C1C=CCO1` here?
**A.** Its logP is -0.6.

**Q.** With `CC(C)N(N=Nc1ccc(C(N)=O)cc1)C(C)C` as the compound, how does the logP read?
**A.** Its logP is 3.

**Q.** With `S=C=NCc1ccccc1` as the compound, how does the logP read?
**A.** The logP was 3.16.

**Q.** For `COc1ccc2c(c1)OC(C)(C)C=C2`, which logP is on record?
**A.** The logP was 3.35.

**Q.** Which logP does the source give for `CC(C)C(C)O` (centres undefined) here?
**A.** Its logP is 1.28.

**Q.** With `ICCI` as the compound, how does the logP read?
**A.** Its logP is 2.71.

**Q.** For `N#CC(C#N)=NNc1ccc(C(=O)CCl)cc1`, which logP is on record?
**A.** Its logP is 2.15.

**Q.** With `COc1cc2c(c(OC)c1OC)-c1ccc(O)c(=O)cc1C(NC(C)=O)CC2` (centres undefined) as the compound, how does the logP read?
**A.** The logP was 1.2.

**Q.** For `O=C[C@H](O)[C@@H](O)[C@H](O)[C@H](O)C(=O)O`, which logP is on record?
**A.** Its logP is -2.57.

**Q.** For `CCCN(CC)C(CC)C(=O)Nc1c(C)cccc1C` (centres undefined), which logP is on record?
**A.** The logP was 3.69.

**Q.** For `Cc1cccc(OCC(O)CNC(C)C)c1` (centres undefined), which logP is on record?
**A.** The logP was 1.93.

**Q.** For `CCN(CC)CCOC(=O)c1ccc(N)cc1Cl`, which logP is on record?
**A.** Its logP is 2.86.

**Q.** For `COCc1ccccc1`, which logP is on record?
**A.** The logP was 1.92.

**Q.** With `COc1ccc(S(I)=C(N(C)C)N(C)C)cc1` (centres undefined) as the compound, how does the logP read?
**A.** The logP was -0.51.

**Q.** Which logP does the source give for `CC(=O)N[C@H](C(=O)N[C@@H](Cc1ccccc1)C(=O)N[C@@H](C)C(N)=O)C(C)C` (Ac-Val-Phe-Ala-NH2) here?
**A.** The logP was 0.06.

**Q.** Which logP does the source give for `Clc1ccc(-c2cccc(Cl)c2Cl)cc1` here?
**A.** The logP was 5.42.

**Q.** For `Cn1c(N)nc2ccc(C#N)cc21`, which logP is on record?
**A.** The logP was 1.29.

**Q.** With `O=[N+]([O-])c1nccn1CC(O)CF` (centres undefined) as the compound, how does the logP read?
**A.** Its logP is -0.52.

**Q.** With `CCCCl` as the compound, how does the logP read?
**A.** The logP was 2.04.

**Q.** With `N#CCc1ccc(Cl)cc1` as the compound, how does the logP read?
**A.** The logP was 2.47.

**Q.** For `COCCOC`, which logP is on record?
**A.** Its logP is -0.21.

**Q.** With `COC(=O)C1C(C=C(Cl)Cl)C1(C)C` (centres undefined) as the compound, how does the logP read?
**A.** The logP was 3.63.

**Q.** With `CCOC(=O)C(=Cc1cccc(OCC)c1)C(=O)OCC` as the compound, how does the logP read?
**A.** The logP was 3.39.

**Q.** For `O=C(O)c1ccc(O)c(O)c1O`, which logP is on record?
**A.** The logP was 1.05.

**Q.** Which logP does the source give for `FC(F)(F)c1ccc(C(F)(F)F)cc1` here?
**A.** The logP was 3.83.

**Q.** With `Nc1ccc(C2CCCCC2)cc1` as the compound, how does the logP read?
**A.** Its logP is 3.65.

**Q.** With `CCCCC(=O)OCC1CCC(n2cnc3c(=O)[nH]cnc32)O1` (centres undefined) as the compound, how does the logP read?
**A.** Its logP is 0.65.

**Q.** For `C#CCn1cncc1[N+](=O)[O-]`, which logP is on record?
**A.** The logP was 0.52.

**Q.** Which logP does the source give for `O=C(CCn1cnc([N+](=O)[O-])n1)N1CCOCC1` here?
**A.** Its logP is -0.74.

**Q.** For `CCOC(=O)C(=Cc1cccc(OCC)c1)C(C)=O`, which logP is on record?
**A.** Its logP is 2.71.

**Q.** With `Clc1cccnc1` as the compound, how does the logP read?
**A.** The logP was 1.33.

**Q.** Which logP does the source give for `COc1cccc(C(N)=O)c1` here?
**A.** The logP was 0.85.

**Q.** For `Nc1ncccn1`, which logP is on record?
**A.** Its logP is -0.22.

**Q.** For `c1ccc(Sc2ccccc2)cc1`, which logP is on record?
**A.** The logP was 4.45.

**Q.** With `COc1ccccc1NS(=O)(=O)c1ccc(N)cc1` as the compound, how does the logP read?
**A.** Its logP is 1.56.

**Q.** With `CCC(C)NC(=O)C=Cc1ccccc1` (centres undefined) as the compound, how does the logP read?
**A.** The logP was 2.85.

**Q.** With `Cc1ccc(NC(=O)c2cccnc2)cc1` as the compound, how does the logP read?
**A.** The logP was 2.08.

**Q.** Which logP does the source give for `OCc1ccoc1` here?
**A.** The logP was 0.3.

**Q.** Which logP does the source give for `CCCCOc1ccc(O)cc1` here?
**A.** The logP was 2.9.

**Q.** With `CN(C)CCOC(=O)c1ccc(Cl)cc1` as the compound, how does the logP read?
**A.** The logP was 2.63.

**Q.** With `COC(=O)c1ccsc1` as the compound, how does the logP read?
**A.** Its logP is 1.76.

**Q.** With `O=C(CCBr)N1CCN(C(=O)CCBr)CC1` as the compound, how does the logP read?
**A.** Its logP is 0.42.

**Q.** With `CC(=O)N[C@@H](Cc1ccccc1)C(=O)N[C@@H](CCC(N)=O)C(N)=O` as the compound, how does the logP read?
**A.** Its logP is -1.03.

**Q.** With `CCCCOP(=O)(OCCCC)Oc1ccccc1` as the compound, how does the logP read?
**A.** Its logP is 4.27.

**Q.** Which logP does the source give for `CCCCCCOC(=O)n1cnc(CC(NC(=O)C2CCC(=O)N2)C(=O)N2CCCC2C(N)=O)c1` (centres undefined) here?
**A.** The logP was 0.71.

**Q.** Which logP does the source give for `O=C(NP(=O)(N1CC1)N1CC1)c1ccc(I)cc1` here?
**A.** Its logP is 2.25.

**Q.** With `Cc1cccc(Cl)c1Nc1ccccc1CC(=O)O` as the compound, how does the logP read?
**A.** Its logP is 4.37.

**Q.** Which logP does the source give for `O=[N+]([O-])c1ccccc1Nc1ccccc1` here?
**A.** Its logP is 3.66.
